Assay [1] relates to aortic medial smooth muscle cells (M-SMC). Briefly: Inhibitory effect on 3H-thymidine uptake in aortic medial smooth muscle cells. In kind it is cell-based, healthy Japanese white rabbit. As to conditions: Oryctolagus cuniculus, 24 hours with compound, read-out: Inhibition (%) Media; for inhibition at 10 µM: drug concentration 10^-5 M; for inhibition at 1 µM: drug concentration 10^-6 M. As to the method: (§1) The inhibitory effects of the compound of the present invention on ^3 H-thymidine uptake in I-SMC and M-SMC were measured by the following methods. M-SMC and I-SMC are obtained from aortic media of a healthy Japanese white rabbit and from aortic intima of an atherosclerotic Japanese white rabbit as mentioned in Example 2. After three or four times subculture, the cells in the state of confluency were trypsinized and suspended in a DME medium containing 10% of FBS and an antibiotic so that the cell density would be 40,000 cells/ml. The 10,000 cells were seeded to a 48 well multi-well plate. After 4 days culture, the medium was replaced by the control medium or the medium containing a test compound as used in Example 2, and culture was continued for 24 hours. Then, 1 μCi ([…]) of ^3 H-thymidine was added thereto, and culture was continued for 3 hours. The cells were washed three times with a phosphate buffered physiological saline (PBS) and treated with chilled 5% trichloroacetic acid (TCA). The insoluble-fraction was washed with chilled TCA and then dissolved in a 0.5N potassium hydroxide aqueous solution. The ^3 H radioactivity was measured by a liquid scintillation counter and the protein content was measured. […] The inhibition (%) was calculated in accordance with the following formula.

Assay [2] has the same test system. Briefly: Inhibitory effects on migration of aortic medial smooth muscle cells (Boyden's chamber). Format: cell-based, Sprague Dawley male rat. As to conditions: migration of rat M-SMC, drug concentration 10^-5 M, 4 hours. As to the method: The inhibitory effects of the compounds of the present invention on migration of M-SMC were measured by the following methods. Arterial medial slices of the thoracic of aorta of a Sprague Dawley male rat were cultured by using a medium of Dulbecco's Modified Eagle (DME) containing 10% fetal bovine serum (FBS) at 37° C. in an atmosphere comprising 95% of air and 5% of carbon dioxide for 3 or 4 weeks. The aortic medial smooth muscle cells grown from the arterial medial slices were subcultured by 1:2 split of cell density for stable subculture. After the three or four times subculture, the cells in the state of confluency were subjected to trypsinized and then suspended in the above medium at a cell density of 500,000 cells per ml. To the cell suspension, a test compound dissolved in dimethylsulfoxide (DMSO) was added so that the final DMSO concentration would be 0.2%, and the cell suspension was pre-incubated at 37° C. for 30 minutes. As a control, DMSO was added alone at the same concentration. In the lower compartment of Boyden's chamber partitioned with a nitrocellulose membrane, 10 ng/ml of a platelet-derived growth factor (PDGF) or DME medium containing a 10% SMC-conditioned DME medium (SMC-CM) obtained from 48 hours conditioning was filled as a migration factor. In the upper compartment thereof, 1 ml of the cell suspension was loaded, and incubation was conducted at 37° C. for 4 hours in a culture condition. As the blank, the DME medium without migration factor was filled in the lower compartment. After 4 hour incubation, the cells adhered to the upper side of the nitrocellulose membrane were removed, and the cells migrated to the lower side of the membrane were fixed and stained by Diff Quik. The number of migrated cells was counted in the 10 fields by a light microscope at 400 x HPF.

For assay [3], the system named is aortic intimal smooth muscle cells (I-SMC). Briefly: Inhibitory effects on proliferation of aortic intimal smooth muscle cells (cell count). Format: cell-based, atherosclerotic Japanese white rabbit. Conditions: Oryctolagus cuniculus, fold increase of cell number second to fifth day, read-out: Inhibition (%) Intima; for inhibition at 10 µM: drug concentration 10^-5 M; for inhibition at 1 µM: drug concentration 10^-6 M. How it is done: (§2) The inhibitory effects of the compounds of the present invention on the proliferation of I-SMC and M-SMC were measured by the following methods. […] After twice or three times subculture of cells, the cells in the state of confluency were trypsinized and suspended in the above medium so that the cell density would be 20,000 cells/ml. Then, the 10,000 cells were seeded and cultured on a 24 well multi-well plate. After incubation for 6 hours, the medium was replaced by 0.5 ml of a control medium or a medium containing a test compound. At the same time, the number of cells initially attached to the plate was counted and taken as the initial cell number (I). The test compound was added to the medium as described in Example 1. As the control, DMSO was added alone so that the final concentration would be 0.2%. The medium change was carried out every 2 days, and on the first, second, third, fifth and seventh days, the cells were trypsinized and suspended in Isoton and counted cell number by a Coulter counter. The obtained results were represented by an average number of cells of three wells in each case, and the inhibition (%) of the fold increase of the cell number from the second day to the fifth day was calculated in accordance with the following formula.

The test system is the same in assay [4]. Briefly: Inhibitory effect on 3H-thymidine uptake in aortic intimal smooth muscle cells. Format: cell-based, atherosclerotic Japanese white rabbit. Conditions: Oryctolagus cuniculus, 24 hours with compound, read-out: Inhibition (%) Intima; for inhibition at 10 µM: drug concentration 10^-5 M; for inhibition at 1 µM: drug concentration 10^-6 M. As to the method:
as §1

The test system of assay [5] is leukemic cells (HL-60). Briefly: Inhibitory effects against adhesion of leukemic cells (HL-60) induced by TPA. In kind it is cell-based. Conditions: Homo sapiens, HL-60, TPA-induced, 48 hours pretreatment; for inhibition at 10 µM: drug concentration 10^-5 M. As to the method:
The inhibitory effects of the compounds in the present invention on cell adhesion of HL-60 were measured by the following methods. HL-60 cells were cultured in a RPMI 1640 medium containing 10% of FBS and an antibiotic at 37° C. in an atmosphere comprising 95% of air and 5% of carbon dioxide and then seeded to a 6 well multi-well plate in an amount of 2 ml per well at a cell density of 1,000,000/ml. A test compound dissolved in DMSO was added so that the final DMSO concentration would be 0.2%, and incubation was carried out for 48 hours for pretreatment. Then, 500,000 cells were seeded to a 24 well multi-well plate, and 0.02 mM of phorbol myristate acetate (TPA) dissolved in ethanol, was added in an amount of 1/250 (v/v) of the culture medium, and then culture was continued for 12 hours. After that, the cells were washed with PBS and the cells attached to the well plates were scraped off by trypsinization and suspended in Isoton, and the number of cells were counted by a Coulter counter. A control test was carried out by adding DMSO alone.

The test system of assay [6] is aortic medial smooth muscle cells (M-SMC). Briefly: Inhibitory effects on proliferation of aortic medial smooth muscle cells (cell count). In kind it is cell-based, healthy Japanese white rabbit. Conditions: Oryctolagus cuniculus, fold increase of cell number second to fifth day, read-out: Inhibition (%) Media; for inhibition at 10 µM: drug concentration 10^-5 M; for inhibition at 1 µM: drug concentration 10^-6 M. As to the method:
as §2

For assay [7], the system named is J774 macrophages (J774-M.phi.). Briefly: Inhibitory effects against adhesion of J774 macrophages. In kind it is cell-based. As to conditions: Mus musculus, 48 hours pretreatment; for inhibition at 10 µM: drug concentration 10^-5 M; for inhibition at 1 µM: drug concentration 10^-6 M. How it is done:
The inhibitory effects of the compounds in the present invention on cell adhesion of J774-M.phi. were measured by the following methods. […] Then, culture was continued with a control medium containing 0.2% of DMSO or with a medium containing a test compound for 48 hours as pretreatment. Then, the cells were scraped by means of a rubber policeman and suspended in the above medium. 200,000 cells were seeded to a 24 well multi-well plate., and cultured for 12 hours. After that, the cells attached to the well plates were scraped by a rubber policeman, and the number of cells was counted by a Coulter counter. The obtained results are represented by an average value of the number of cells in three wells at the time of the pretreatment, in each case, and the inhibition (%) on the adhesion was calculated in accordance with the following formula.

Where [8] appears, read: migration factor 10 ng/ml PDGF, read-out: Inhibition (%) PDGF.
Where [9] appears, read: migration factor 10% SMC-conditioned medium, read-out: Inhibition (%) SMC-CM.

This note sets out measurements from patent US6162798A, “Inhibitor of atherosclerotic intimal thickening” (priority 1991, dated 2000).

For `CC[C@H](C)C(=O)O[C@H]1C[C@H](O)C=C2C=C[C@H](C)[C@H](CC[C@@H](O)C[C@@H](O)CC(=O)O)[C@H]21` [Pravastatin, reference compound], the inhibition (commonly the change of the read-out against control, counted positive when it falls) at 10 µM in assay [1] is -34.3%; in assay [2] (setting [8]) it was 61.8%; in assay [2] (setting [9]), 26.2%; in assay [3] it was 1.3%; in assay [4] it was -7.2%; in assay [5], -2.8%. For the same compound, the inhibition at 10 µM was -11.7% in assay [6] and 41.3% in assay [7]. The inhibition at 1 µM is 8.7% in assay [1]; 1.3% in assay [3]; -7% in assay [4]; 8.7% in assay [6]; 40% in assay [7].

As for `CCc1c(C)sc2nc(C3CC3)c(/C=C/[C@@H]3C[C@@H](O)CC(=O)O3)c(-c3ccc(F)cc3)c12` (relative stereo) [Test compound 3, (E)-trans-6-(2'-[2'-cyclopropyl-5'-ethyl-3'-(4'"-fluorophenyl)-6'-methylthieno[2,3-b]pyridin-3'-yl]ethenyl)-4-hydroxy-3,4,5,6-tetrahydro-2H-pyran-2-on], the inhibition at 10 µM in assay [1] was 92.2%; in assay [2] (setting [8]), 100%; in assay [2] (setting [9]), 41.7%; in assay [3] it was 100%; in assay [4], 94.1%; in assay [5] it was 96.4%. Moreover, the figures for the inhibition at 10 µM in assay [6] and in assay [7] were 100% and 92.4%, respectively. Besides, the inhibition at 1 µM in assay [1] was 53.6%; in assay [3], 100%; in assay [4], 69.9%; in assay [5] (drug concentration 10^-6 M) it was 92.2%; in assay [6], 31.5%; in assay [7] it was 92.2%. Also, the inhibition at 0.1 µM in assay [5] (drug concentration 10^-7 M) came to 4.8%.

In the case of `Cc1nn(C)c2nc(C3CC3)c(/C=C/[C@@H]3C[C@@H](O)CC(=O)O3)c(-c3ccc(F)cc3)c12` (relative stereo) [Test compound 2, (E)-trans-6-(2'-[6"-cyclopropyl-1',3'-dimethyl-4'-(4'"-fluorophenyl)pyrazolo[3,4-b]pyridin-5"-yl]ethenyl)-4-hydroxy-3,4,5,6-tetrahydro-2H-pyran-2-one], the inhibition at 10 µM turned out to be 88.4% in assay [1]; 98.2% in assay [2] (setting [8]); 32.8% in assay [2] (setting [9]); 98.2% in assay [3]; 91.5% in assay [4]; 86.5% in assay [6]. Also, the inhibition at 1 µM in assay [1] came to 36.4%; in assay [3], 84.6%; in assay [4], 11.7%; in assay [6] it was 4.7%.
